The text below walks through data of patent US20120016009A1, “Optimized Methods For Delivery Of DSRNA Targeting The PCSK9 Gene” (priority 2008, published 2012).

This series concerns PCSK9 mRNA. Put plainly: PCSK9 siRNA screening in HepG2 cells (lipofectamine 2000 transfection, PCSK9 mRNA by Quantigene, normalized to GAP-DH). The series is classed as cell-based, human. The conditions noted are these: for Mean percent remaining mRNA transcript at siRNA concentration/in cell type 30 nM/HepG2: 30 nM siRNA; for Mean percent remaining mRNA transcript at siRNA concentration/in cell type 3 nM/HepG2: 3 nM siRNA. In a few lines:
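HepG2 cells, grown in MEM with 10% fetal calf serum, antibiotics, non-essential amino acids and sodium pyruvate at 37° C. and 5% CO2, were plated at 2.0×10^4 cells/well in 96-well plates and transfected directly with siRNA using lipofectamine 2000. After 24 hours, cells were lysed and PCSK9 mRNA was measured by Quantigene and normalized to GAP-DH mRNA.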

In the oligonucleotide strings, read from the 5' end, every base follows the letter of its sugar. An asterisk marks phosphorothioate; unmarked linkages are phosphodiester. Other units and linkages are bracketed, terminal groups are in braces. A string of capitals states the bases alone. d = 2'-deoxy (DNA); m = 2'-O-methyl; r = 2'-OH (RNA)

As for “AD-9656: PCSK9 siRNA (sense rAmCmCrGrGrGmCrGrGrAmUrGrArAmUrAmCmCrAdT*dT; antisense rUrGrGmUrArUrUmCrArUrCrCrGrCrCrCrGrGrUdT*dT)”, the “Mean percent remaining mRNA transcript at siRNA concentration/in cell type 30 nM/HepG2” value came out at 77%.

As for “AD-9659: PCSK9 siRNA (sense rGrAmCmCrAmCmCrGrGrGrArArAmUmCrGrArGrGdT*dT; antisense rCrCrUrCrGrArUrUrUrCrCrCrGrGrUrGrGrUrCdT*dT)”, the “Mean percent remaining mRNA transcript at siRNA concentration/in cell type 30 nM/HepG2” value is on record as 88%.

As for “AD-9660: PCSK9 siRNA (sense rGrGrAmCrGrAmUrGmCmCmUrGmCmCmUmCmUrAmCdT*dT; antisense rGmUrArGrArGrGmCrArGrGmCrArUrCrGrUrCrCdT*dT)”, the “Mean percent remaining mRNA transcript at siRNA concentration/in cell type 3 nM/HepG2” value came out at 79% and the “Mean percent remaining mRNA transcript at siRNA concentration/in cell type 30 nM/HepG2” value came out at 89%.

“AD-9661: PCSK9 siRNA (sense rGrArGmUrGrAmCmCrAmCmCrGrGrGrArArAmUmCdT*dT; antisense rGrArUrUrUrCrCrCrGrGrUrGrGrUmCrArCrUrCdT*dT)”: the “Mean percent remaining mRNA transcript at siRNA concentration/in cell type 30 nM/HepG2” value turned out to be 83%.

For “AD-9662: PCSK9 siRNA (sense mUmUrAmUmUmCrGrGrArArArArGmCmCrArGmCmUdT*dT; antisense rArGrCrUrGrGrCrUrUrUrUrCrCrGrArAmUrArAdT*dT)”, the “Mean percent remaining mRNA transcript at siRNA concentration/in cell type 30 nM/HepG2” value worked out at 81%.

Take “AD-9663: PCSK9 siRNA (sense rAmCrGrGmUrAmCmCrGrGrGmCrGrGrAmUrGrArAdT*dT; antisense rUrUmCrArUrCrCrGrCrCrCrGrGmUrArCrCrGrUdT*dT)”: the “Mean percent remaining mRNA transcript at siRNA concentration/in cell type 30 nM/HepG2” value is given as 102%.

As to “AD-9664: PCSK9 siRNA (sense mCmCrGrGrGmCrGrGrAmUrGrArAmUrAmCmCrArGdT*dT; antisense rCrUrGrGmUrArUrUmCrArUrCrCrGrCrCrCrGrGdT*dT)”, the “Mean percent remaining mRNA transcript at siRNA concentration/in cell type 30 nM/HepG2” value turned out to be 53%.

Take “AD-9665: PCSK9 siRNA (sense GGuGGAGGuGuAucuccuATsT; antisense uAGGAGAuAcACCUCcACCTsT; as printed in the source, key not given here)”: the “Mean percent remaining mRNA transcript at siRNA concentration/in cell type 30 nM/HepG2” value is 83%.

Consider “AD-9666: PCSK9 siRNA (sense rArGrArGmUrGrAmCmCrAmCmCrGrGrGrArArAmUdT*dT; antisense rArUrUrUrCrCrCrGrGrUrGrGrUmCrArCrUrCrUdT*dT)”, for which the “Mean percent remaining mRNA transcript at siRNA concentration/in cell type 30 nM/HepG2” value is recorded as 81%.

For “AD-9667: PCSK9 siRNA (sense rGrGmUrGrArGrGrGmUrGmUmCmUrAmCrGmCmCrAdT*dT; antisense rUrGrGrCrGmUrArGrAmCrArCrCrCrUmCrArCrCdT*dT)”, the “Mean percent remaining mRNA transcript at siRNA concentration/in cell type 30 nM/HepG2” value stood at 73%.

Consider “AD-9668: PCSK9 siRNA (sense rAmUmCrGrArGrGrGmCrArGrGrGmUmCrAmUrGrGdT*dT; antisense rCmCrArUrGrArCrCrCrUrGrCrCrCrUrCrGrArUdT*dT)”, for which the “Mean percent remaining mRNA transcript at siRNA concentration/in cell type 30 nM/HepG2” value is given as 92%.

Consider “AD-9669: PCSK9 siRNA (sense mCrGmCrGmUrGmCmUmCrArAmCmUrGmCmCrArArGdT*dT; antisense rCrUrUrGrGmCrArGrUrUrGrArGmCrArCrGrCrGdT*dT)”, for which the “Mean percent remaining mRNA transcript at siRNA concentration/in cell type 30 nM/HepG2” value came out at 97%.

Consider “AD-9670: PCSK9 siRNA (sense mUrGrArGrGrAmCmCrArGmCrGrGrGmUrAmCmUrGdT*dT; antisense mCrArGmUrArCrCrCrGrCrUrGrGrUrCrCrUmCrAdT*dT)”, for which the “Mean percent remaining mRNA transcript at siRNA concentration/in cell type 30 nM/HepG2” value amounted to 67%.

As to “AD-9671: PCSK9 siRNA (sense rArGmUmCrArArGrGrArGmCrAmUrGrGrArAmUmCdT*dT; antisense rGrArUrUrCmCrArUrGrCrUrCrCrUrUrGrArCrUdT*dT)”, half-maximal inhibition (IC50) was put at 2.5 nM, the “Mean percent remaining mRNA transcript at siRNA concentration/in cell type 3 nM/HepG2” value amounted to 33% and the “Mean percent remaining mRNA transcript at siRNA concentration/in cell type 30 nM/HepG2” value is reported as 15%.
